Measurements: US7427625B2, “Substituted thiatriazaacenaphthylene-6-carbonitrile kinase inhibitors” (Janssen Pharmaceutica, N.V., priority 2006, dated 2008)

What was measured:
[1] = molecular target: T1, EGFR (Homo sapiens, UniProt P00533); experiment: EGFR Kinase Assay; assay type: biochemical; conditions: for inhibition at 2 µM: test concentration of 2 μM, read-out: EGFR percent inhibition
T1 construct: The intracellular portion of EGFR started at nucleotide 2189 (corresponding to amino acid 667) and ended at the termination codon; made in house; host or cells: Sf9 insect cells (baculovirus)
Excerpt: The EGFR kinase used was a fusion of Glutathione-S-Transferase (GST) and a PCR amplified intracellular portion of EGFR (NM_005228). The intracellular portion of EGFR started at nucleotide 2189 (corresponding to amino acid 667) and ended at the termination codon. The portion was PCR amplified with primers that added the lambda attB sequences to each end, recombined into an entry vector, then into a GST destination vector (as described in Gateway Technologies Manual by Invitrogen Corporation, Carlsbad, Calif.).
The destination vector was recombined in the DH10BAC strain of bacteria to produce a bacmid. The bacmid was transfected into Sf 9 cells and the supernatant containing the baculovirus was collected. The GSTEGFR protein was purified using large cultures of Sf 9 cells infected with stock virus. After an appropriate period of time, the cells were collected and lysed. The GSTEGFR was then purified from the lysate on Glutathione-Sepharose columns (as described by Amersham Biosciences, Buckinghamshire, United Kingdom).
The EGFR substrate was prepared by biotinylating polyGluTyr (128 mg) (Sigma, St. Louis, Mo.) in a 1×PBS buffer incubated together with a 12-fold molar excess of Sulfo-NHS-LC-Biotin on ice for at least 2 hrs. The free biotin was separated from the biotinylated polyGluTyr on a gel filtration column.
A mixture of a 10× kinase buffer (500 mM Tris at pH 8.0, 100 mM Magnesium Chloride and 1 mM Sodium Vanadate), DTT (1 mM final from 500 mM stock), ATP (5 μM final from 10 mM stock), biotinylated polyGluTyr (10 μg/μL stock), γ-^33P ATP (10 μCi/μL stock) and water was added to each well (90 μL/well) of a Streptavidin Flashplate (Perkin Elmer, Wellesley, Mass.).
Test compound in 100% DMSO (2 μL) was added to the appropriate wells. Diluted GSTEGFR (1:300 dilution in 50 mM Tris at pH 8.0 and 0.1% bovine serum albumin) (10 μL) was added to the wells to initiate the reactions.
The plates were incubated at 30° C. for 1 hr with shaking. The reacted contents were removed and the plates were sequentially washed three times with a 1×PBS stop buffer (300 μL without Magnesium and Calcium) and 100 mM EDTA. After the final wash, the same stop buffer (200 μL) was added to the wells. The plates were then sealed and read on the TopCount scintillation counter.
Test compounds were assayed in triplicate at 16 concentrations at half-log dilutions starting at 200 uM. A maximum and minimum signal for the assay was determined on each plate. The percent inhibition of a test compound was calculated according to the formula
For a series of test concentrations, the IC50 was derived by graphing percent inhibition against the log of the concentrations tested for a given compound. For those compounds without an IC50, the percent inhibition results are shown at a test concentration of 2 μM.

[2] = molecular target: T2, VEGF-R2 (Rattus norvegicus, UniProt O08775); experiment: VEGF-R2 Screening Assay; assay type: biochemical; conditions: for inhibition at 1 µM: test concentration of 1 μM, read-out: VEGF-R2 percent inhibition
T2 construct: polyhistidine (N)
Method: (§1) A kinase reaction mixture was prepared containing 50 mM Tris-HCl at pH 8, 10 mM, MgCl20.1 mM […], 1 mM DTT, 10 μM ATP, 0.025 μM biotinylated histone-H1 peptide substrate and 0.2 μCuries per well ^33P-γ-ATP (2000-3000 Ci/mmol). 70 μL of the kinase reaction mixture was dispensed into the well of a Streptavidin FlashPlate.
(§2) Test compound stock in 100% DMSO (1 μL) was added to the wells resulting in a final concentration of 1% DMSO in the reaction with a 100 μL final reaction volume. Each enzyme was diluted in 50 mM Tris-HCl pH=8.0, 0.1% BSA and 30 μL was added to each well to initiate the reaction. The reaction was incubated for one hour at 30° C. At the end of the 1 hr incubation, the reaction was terminated by aspirating the mixture from the plate and washing the wells twice with PBS containing 100 mM EDTA. The biotinylated peptide substrate became immobilized on the Flashplate^198 and the incorporation of ^33P-γ-ATP was measured by reading the plate on a scintillation counter. Inhibition of the enzymatic activity was measured by observing a reduced amount of ^33P-γ-ATP incorporated into the immobilized peptide.
The VEGF-R2 enzyme is a fusion protein containing a polyhistidine tag at the N terminus followed by amino acids 786 to 1343 of the rat VEGF-R2 kinase domain (Accession number U93306). The assay used 150 ng of the N-terminal biotinylated peptide biotin-KHKKLAEGSAYEEV-amide (VEGF-R2) per well.
(§3) The IC50 was derived according to the procedure described in Example 2. For those compounds without an IC50, the percent inhibition results are shown at a test concentration of 1 μM.

[3] = molecular target: T3, Aurora-A (Mus musculus, UniProt P97477); experiment: Aurora-A Screening Assay; assay type: biochemical, murine; conditions: for inhibition at 1 µM: test concentration of 1 μM, read-out: Aurora-A percent inhibition
T3 construct: followed by the full length protein encoding the murine Aurora-A; polyhistidine (N); made in house; host or cells: sf9 insect cells
T3 sequence (P97477 1-395): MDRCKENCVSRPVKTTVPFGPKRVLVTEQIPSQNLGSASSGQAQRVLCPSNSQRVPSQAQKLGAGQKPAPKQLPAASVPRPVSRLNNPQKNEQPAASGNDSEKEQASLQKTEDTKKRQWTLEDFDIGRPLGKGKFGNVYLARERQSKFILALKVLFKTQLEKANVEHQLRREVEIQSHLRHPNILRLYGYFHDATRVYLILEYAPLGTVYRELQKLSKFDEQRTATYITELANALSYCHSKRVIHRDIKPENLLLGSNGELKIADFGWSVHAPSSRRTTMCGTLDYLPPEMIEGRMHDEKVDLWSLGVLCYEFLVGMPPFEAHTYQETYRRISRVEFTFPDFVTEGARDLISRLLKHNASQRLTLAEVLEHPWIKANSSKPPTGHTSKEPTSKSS
Method: as §1, §2
Aurora-A is a fusion protein containing a polyhistidine tag at the N terminus followed by the full length protein encoding the murine Aurora-A (Accession number GB BC014711) expressed and purified from sf9 insect cells. The assay used 400 ng of the N-terminal biotinylated peptide biotin-GRTGRRNSI-amide (Aurora-A) per well.
as §3

[4] = molecular target: T4, HER-2 (Homo sapiens, UniProt P04626); experiment: HER-2 Kinase Assay; assay type: biochemical; conditions: for inhibition at 1 µM: test concentration of 1 μM, read-out: HER-2 percent inhibition
T4 construct: the nucleotides encoding amino acids 679 to 1255 of HER-2; purchased Proqinase (Freiburg, Germany)
Method: HER-2 kinase was purified at Proqinase (Freiburg, Germany) from a construct that consisted of a fusion of GST (Glutathione-S-Transferase), HIS6-Thrombin and the nucleotides encoding amino acids 679 to 1255 of HER-2.
A mixture of a 10× kinase reaction buffer (600 mM Hepes at pH 7.5, 30 mM Magnesium Chloride, 0.03 mM Sodium Vanadate and 500 μg/mL PEG 20,000), DTT (1.2 mM final from a 10 mM stock), ATP (1 μM from a 10 mM stock), biotinylated polyGluTyr (1.5 ng/μL final from stock of 1 μg/μL prepared by Upstate Biotechnologies, Lake Placid, N.Y.), Manganese Chloride (3 mM final from a 1 M stock), γ-^33P-ATP (10 μCi/μL stock) and water (70 μL/well) was added to each well of a Streptavidin Flashplate (Cat. #SMP103, NEN, Boston, Mass.).
Test compound stock (1 μL) was added to the appropriate wells. Diluted GSTHER2 kinase (6.7 ng/μL diluted into 50 mM Tris-HCl at pH 8.0 and 0.1% bovine serum albumin) (30 μL) was added (total volume of 200 ng/well) to initiate the reactions.
The reaction plates were incubated at 30° C. for 1 hr. The reaction was terminated by aspiring the reaction mixture from the plate wells and washing the wells three times with a 1×PBS stop buffer (300 μL) and 100 mM EDTA. After the final wash, the same stop buffer (200 μL) was again added to the wells. The plates were then sealed and read on the TopCount scintillation counter.
as §3

T1 sequence (P00533 669-1210 limits assumed): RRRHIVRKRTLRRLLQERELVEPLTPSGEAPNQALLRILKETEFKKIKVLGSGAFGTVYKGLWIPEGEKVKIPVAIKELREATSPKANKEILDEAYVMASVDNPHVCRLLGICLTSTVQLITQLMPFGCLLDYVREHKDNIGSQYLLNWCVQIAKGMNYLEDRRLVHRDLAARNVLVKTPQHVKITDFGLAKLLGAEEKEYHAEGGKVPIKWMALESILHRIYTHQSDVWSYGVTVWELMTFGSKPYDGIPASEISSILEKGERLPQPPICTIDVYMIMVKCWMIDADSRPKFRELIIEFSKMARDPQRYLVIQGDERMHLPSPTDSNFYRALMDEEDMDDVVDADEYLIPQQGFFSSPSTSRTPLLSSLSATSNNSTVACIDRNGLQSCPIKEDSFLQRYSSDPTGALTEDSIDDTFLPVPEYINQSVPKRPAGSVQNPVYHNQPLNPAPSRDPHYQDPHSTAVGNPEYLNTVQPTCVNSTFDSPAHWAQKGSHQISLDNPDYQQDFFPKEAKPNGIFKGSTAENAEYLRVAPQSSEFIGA
T4 sequence (P04626 679-1255): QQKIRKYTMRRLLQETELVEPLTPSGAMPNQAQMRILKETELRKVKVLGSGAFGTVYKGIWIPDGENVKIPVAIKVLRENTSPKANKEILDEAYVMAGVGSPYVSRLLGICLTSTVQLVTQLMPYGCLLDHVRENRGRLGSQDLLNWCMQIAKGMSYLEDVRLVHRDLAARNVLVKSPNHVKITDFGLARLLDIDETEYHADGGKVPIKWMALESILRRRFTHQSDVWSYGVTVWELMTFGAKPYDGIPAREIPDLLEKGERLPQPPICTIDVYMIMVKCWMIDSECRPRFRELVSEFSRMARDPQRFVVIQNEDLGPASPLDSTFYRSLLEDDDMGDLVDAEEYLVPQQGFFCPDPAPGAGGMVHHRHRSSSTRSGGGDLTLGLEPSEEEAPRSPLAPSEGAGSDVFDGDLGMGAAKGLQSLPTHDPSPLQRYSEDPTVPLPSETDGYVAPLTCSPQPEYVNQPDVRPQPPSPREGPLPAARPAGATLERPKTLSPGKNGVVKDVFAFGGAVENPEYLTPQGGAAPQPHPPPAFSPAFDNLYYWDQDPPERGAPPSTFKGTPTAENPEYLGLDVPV
T2 sequence (O08775 786-1343): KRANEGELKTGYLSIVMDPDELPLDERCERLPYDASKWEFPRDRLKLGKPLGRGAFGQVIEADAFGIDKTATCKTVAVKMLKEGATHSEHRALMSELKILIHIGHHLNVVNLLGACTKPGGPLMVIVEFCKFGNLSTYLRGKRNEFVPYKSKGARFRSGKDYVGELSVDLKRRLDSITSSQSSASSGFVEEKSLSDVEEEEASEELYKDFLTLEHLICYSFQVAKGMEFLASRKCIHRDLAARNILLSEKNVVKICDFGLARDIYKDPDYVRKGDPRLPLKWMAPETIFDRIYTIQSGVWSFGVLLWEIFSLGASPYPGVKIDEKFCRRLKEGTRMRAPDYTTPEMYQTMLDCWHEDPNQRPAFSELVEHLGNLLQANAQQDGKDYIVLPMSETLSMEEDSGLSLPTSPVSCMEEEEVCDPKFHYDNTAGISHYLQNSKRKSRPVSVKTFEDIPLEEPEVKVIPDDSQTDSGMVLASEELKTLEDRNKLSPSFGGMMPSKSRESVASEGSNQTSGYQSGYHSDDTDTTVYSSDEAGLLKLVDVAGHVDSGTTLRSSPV

SMILES	inhibition at 2 µM [1] [%]	inhibition at 1 µM [2] [%]	inhibition at 1 µM [3] [%]	inhibition at 1 µM [4] [%]	IC50 [1] [µM]	IC50 [2] [µM]	IC50 [3] [µM]	IC50 [4] [µM]
N#Cc1cnc2sc(C(=O)Nc3cccnc3)c3c2c1N(c1c(Cl)ccc2c1OCO2)C(=O)N3 [Cpd 36, 5-(5-chloro-benzo[1,3]dioxol-4-yl)-6-cyano-4-oxo-4,5-dihydro-3H-1-thia-3,5,8-triaza-acenaphthylene-2-carboxylic acid pyridin-3-ylamide]	35	15	21	29				
CC1COCC(C)N1Cc1ccc(NC(=O)c2sc3ncc(C#N)c4c3c2NC(=O)N4c2c(Cl)ccc3c2OCO3)cc1 (stereo not drawn) [Cpd 24, 5-(5-chloro-benzo[1,3]dioxol-4-yl)-6-cyano-4-oxo-4,5-dihydro-3H-1-thia-3,5,8-triaza-acenaphthylene-2-carboxylic acid [4-(3,5-dimethyl-morpholin-4-ylmethyl)-phenyl]-amide]	24	14	7	12				
N#Cc1cnc2sc(C(=O)Nc3ccc(CN4CCCC(CO)C4)cc3)c3c2c1N(c1c(Cl)ccc2c1OCO2)C(=O)N3 (stereo not drawn) [Cpd 20, 5-(5-chloro-benzo[1,3]dioxol-4-yl)-6-cyano-4-oxo-4,5-dihydro-3H-1-thia-3,5,8-triaza-acenaphthylene-2-carboxylic acid [4-(3-hydroxymethyl-piperidin-1-ylmethyl)-phenyl]-amide]		24	21	41	0.91			
CN(C)c1cc(NC(=O)c2sc3ncc(C#N)c4c3c2NC(=O)N4c2c(Cl)ccc3c2OCO3)ccc1CN1CCOCC1 [Cpd 27, 5-(5-chloro-benzo[1,3]dioxol-4-yl)-6-cyano-4-oxo-4,5-dihydro-3H-1-thia-3,5,8-triaza-acenaphthylene-2-carboxylic acid (3-dimethylamino-4-morpholin-4-ylmethyl-phenyl)-amide]	34	7	16	0				
N#Cc1cnc2sc(C(=O)Nc3ccc(NCCCN4CCOCC4)nc3)c3c2c1N(c1c(Cl)ccc2c1OCO2)C(=O)N3 [Cpd 30, 5-(5-chloro-benzo[1,3]dioxol-4-yl)-6-cyano-4-oxo-4,5-dihydro-3H-1-thia-3,5,8-triaza-acenaphthylene-2-carboxylic acid [6-(3-morpholin-4-yl-propylamino)-pyridin-3-yl]-amide]	11	12	22	35				
COC1CCN(Cc2ccc(NC(=O)c3sc4ncc(C#N)c5c4c3NC(=O)N5c3ccc(Oc4ccccc4)cc3)cc2)CC1 [Cpd 51, 6-cyano-4-oxo-5-(4-phenoxy-phenyl)-4,5-dihydro-3H-1-thia-3,5,8-triaza-acenaphthylene-2-carboxylic acid [4-(4-methoxy-piperidin-1-ylmethyl)-phenyl]-amide]	48					> 100	> 100	> 10
Cn1ccc(NC(=O)c2sc3ncc(C#N)c4c3c2NC(=O)N4c2c(Cl)ccc3c2OCO3)n1 [Cpd 39, 5-(5-chloro-benzo[1,3]dioxol-4-yl)-6-cyano-4-oxo-4,5-dihydro-3H-1-thia-3,5,8-triaza-acenaphthylene-2-carboxylic acid (1-methyl-1H-pyrazol-3-yl)-amide]	26	9	15	0				
CN1CCCCC1COc1ccc(NC(=O)c2sc3ncc(C#N)c4c3c2NC(=O)N4c2c(Cl)ccc3c2OCO3)cc1 (stereo not drawn) [Cpd 32, 5-(5-chloro-benzo[1,3]dioxol-4-yl)-6-cyano-4-oxo-4,5-dihydro-3H-1-thia-3,5,8-triaza-acenaphthylene-2-carboxylic acid [4-(1-methyl-piperidin-2-ylmethoxy)-phenyl]-amide]	35	1	13	22				
CCOC(=O)c1sc2nc(Cl)c(C#N)c3c2c1NC(=O)N3c1ccc(Oc2ccccc2)cc1 [Cpd 53, 7-chloro-6-cyano-4-oxo-5-(4-phenoxy-phenyl)-4,5-dihydro-3H-1-thia-3,5,8-triaza-acenaphthylene-2-carboxylic acid ethyl ester]	2					> 100	> 100	> 100
